Results on 9 molecules are retold here after patent US9328093B2, “Selective inhibitors of ubiquitin specific protease 7, the pharmaceutical compositions thereof and their therapeutic applications” (HYBRIGENICS SA, priority 2010, dated 2016).

In one experiment the target is T1, USP8 (Homo sapiens, UniProt P40818).
T1 construct: His (from pFastBac-HT vector) (N); made in house; host or cells: Sf9 or High Five insect cells, baculovirus
T1 sequence (P40818 1-1118): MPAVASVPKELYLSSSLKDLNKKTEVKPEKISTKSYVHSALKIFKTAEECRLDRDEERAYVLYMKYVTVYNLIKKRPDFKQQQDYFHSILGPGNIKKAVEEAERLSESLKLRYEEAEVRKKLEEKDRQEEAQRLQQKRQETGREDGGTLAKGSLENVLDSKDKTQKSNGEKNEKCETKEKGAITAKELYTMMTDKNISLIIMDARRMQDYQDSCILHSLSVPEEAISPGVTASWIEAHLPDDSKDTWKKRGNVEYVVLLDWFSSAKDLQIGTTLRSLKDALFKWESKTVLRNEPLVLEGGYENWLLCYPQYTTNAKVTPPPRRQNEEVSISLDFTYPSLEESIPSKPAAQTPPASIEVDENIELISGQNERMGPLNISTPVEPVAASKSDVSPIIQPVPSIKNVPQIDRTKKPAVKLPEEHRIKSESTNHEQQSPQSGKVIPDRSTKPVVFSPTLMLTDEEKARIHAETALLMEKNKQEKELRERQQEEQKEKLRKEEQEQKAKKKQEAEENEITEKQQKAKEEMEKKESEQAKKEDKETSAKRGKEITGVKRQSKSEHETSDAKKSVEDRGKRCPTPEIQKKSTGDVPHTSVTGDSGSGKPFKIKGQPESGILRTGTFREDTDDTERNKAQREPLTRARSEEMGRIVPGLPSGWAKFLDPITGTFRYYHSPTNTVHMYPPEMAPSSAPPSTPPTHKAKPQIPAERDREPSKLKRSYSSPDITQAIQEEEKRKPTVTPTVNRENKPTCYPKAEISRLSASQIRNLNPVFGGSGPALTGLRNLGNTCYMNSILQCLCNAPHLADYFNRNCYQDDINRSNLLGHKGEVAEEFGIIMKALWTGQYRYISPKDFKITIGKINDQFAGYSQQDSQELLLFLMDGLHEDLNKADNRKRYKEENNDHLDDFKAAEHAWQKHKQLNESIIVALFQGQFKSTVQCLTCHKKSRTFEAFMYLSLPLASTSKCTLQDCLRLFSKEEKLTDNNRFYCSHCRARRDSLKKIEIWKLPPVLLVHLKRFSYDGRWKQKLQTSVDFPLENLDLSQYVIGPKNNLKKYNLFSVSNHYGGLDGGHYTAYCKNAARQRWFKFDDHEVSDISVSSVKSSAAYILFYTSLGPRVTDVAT
As to the kind of experiment: USP8 activity assay (Ub-AMC substrate). It counts as biochemical. To be noted: Ub-AMC 300 nM, USP8 1.36 nM. An excerpt: The cDNA encoding USP8 was obtained by PCR amplification from placenta mRNA. USP8 cDNA was subcloned by PCR into a baculovirus expression vector (pFastBac-HT; Invitrogen). A cDNA encoding a mutated USP8 was generated by mutagenic PCR. The corresponding protein encodes a cysteine to alanine substitution at residue 786. The sequences were ascertained by sequencing of the entire open reading frame. Bacmids encoding USP8 were generated following DH10bac transposition. The corresponding bacmids were transfected into insect cells (Sf9). Viruses were recovered from culture supernatant and amplified twice. Insect cells (Sf9 or High Five; Invitrogen) were infected for 72 hours. Total cell lysates were harvested and lyzed in lysis buffer (Tris HCl 50 mM pH7.6; 0.75% NP40; 500 mM NaCl; 10% glycerol; 1 mM DTT; 10 mM imidazole; Protease Inhibitor Cocktail; AEBSF 20 μg·ml^−1; Aprotinin 10 μg·ml^−1). Proteins were affinity purified on metal affinity resins (Talon Metal affinity resin; BD Biosciences). Bound materials were extensively washed in wash buffer (50 mM Sodium Phosphate pH 7.0; 300 mM NaCl; 10 mM imidazole; 0.5% Triton X-100; 10% glycerol) and eluted from the resin in 250 mM imidazole-containing wash buffer. Proteins were dialyzed in dialysis buffer (Tris HCl pH 7.6 20 mM; NaCl 200 mM; DTT 1 mM; EDTA 1 mM; 10% Glycerol). Proteins purifications were analyzed on 4-12% NuPAGE (Invitrogen).
USP8 was diluted in USP buffer (50 mM Tris HCl; 0.5 mM EDTA; 5 mM DTT; 0.01% Triton X-100; Bovine Serum Albumin 0.05 mg·ml^−1 pH8.8). Compounds stocks (100 mM) were stored at −20° C. in DMSO. Compounds were tested at different concentrations: from 200 μM to 91 nM.
Reactions were performed as duplicates in Black 384 well plates (small volume microplates; Greiner; 10 μl final reaction volume). The substrate concentration for USP8 was 300 nM Ub-AMC (Boston Biochem). The concentration of the enzyme (USP8) in specificity assays was 1.36 nM. The concentrations were determined in order to perform specificity assays under initial velocities at fixed substrate concentration. Compounds were pre-incubated with enzymes for 30 minutes at 25° C. Reactions were initiated by addition of substrate to the plates containing the enzymes (+/− compounds) diluted in assay buffer. Reactions were incubated for 60 minutes at 37° C. Reactions were stopped by adding acetic acid (100 mM final). Readings were performed on a Pherastar Fluorescent Reader (BMG). λ Emission 380 nm: λ Excitation=460 nm. Data (mean values +/− standard deviation) were analyzed as % of control (no compound) and plotted as percentage versus the Log of the compound concentration using GraphPad (Prism). Data were fitted to a sigmoidal model (variable slope).

In experiment [1] the test system is HCT116 colon cancer cells. As to the kind of experiment: HCT116 cell viability and proliferation assay (MTS). It counts as cell-based. To be noted: Homo sapiens, HCT-116, 72 h, HCT116, 72 hours, read-out: Cell viability (MTS): HCT116 GI50 Day3. In short, it runs like this:
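HCT116 cells (10^3/well) treated in triplicate 24 h after seeding with 50 nM–100 μM compound, 0.5% final DMSO, for 72 h at 37 °C. Viability by MTS (2 h), absorbance 492 nm; GI50 from sigmoidal variable-slope fit, mean of three independent experiments.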

A word on the IC50: it is the midpoint of a concentration-inhibition curve. A higher IC50 goes with weaker potency. The GI50 is the concentration giving 50% growth inhibition.

In the case of `COc1ccc(CN2CCC(CNC(=O)c3ccc4c(Cl)c5c(nc4c3)CCCC5)CC2)cc1` [Example 22, 9-chloro-N-((1-(4-methoxybenzyl)piperidin-4-yl)methyl)-5,6,7,8-tetrahydroacridine-3-carboxamide], on USP8, the IC50 is more than 200 µM. Moreover, the GI50 in experiment [1] worked out at 3.3 µM.
On USP8, `CN1CCCC1CCNC(=O)c1ccc2c(Cl)c3c(nc2c1)CCCC3` (stereo not drawn) [Example 17, 9-chloro-N-(2-(1-methylpyrrolidin-2-yl)ethyl)-5,6,7,8-tetrahydroacridino-3-carboxamide] registered an IC50 of more than 200 µM. The GI50 in experiment [1] is 6.9 µM.
Consider `CN(C)c1ccc(CN2CCC(CNC(=O)c3ccc4c(Cl)c5c(nc4c3)CCCC5)CC2)cc1` [Example 23], for which the IC50 at USP8 was more than 200 µM. In addition, in experiment [1], the GI50 is 1.8 µM.
`O=C(Nc1cccc(CN2CCCC2)c1)c1ccc2c(Cl)c3c(nc2c1)CCCC3` [Example 19, 9-chloro-N-(3-(pyrrolidin-1-ylmethyl)phenyl)-5.6,7,8-tetrahydroacridine-3-carboxamide] displayed an IC50 against USP8 of more than 200 µM. Further, in experiment [1], the GI50 is 4.1 µM.
In turn, `O=C(NCc1ccc(CN2CCCC2)cc1)c1ccc2c(Cl)c3c(nc2c1)CCCC3` [Example 21, 9-chloro-N-(4-(pyrrolidin-1-ylmethyl)benzyl)-5,6,7,8-tetrahydroacridine-3-carboxamide] had an IC50 at USP8 of more than 200 µM. Moreover, in experiment [1], the GI50 turned out to be 3.5 µM.
The molecule `O=C(NCC1CCNCC1)c1ccc2c(Cl)c3c(nc2c1)CCCC3` [Example 24, 9-chloro-N-((piperidin-4-yl)methyl)-5,6,7,8-tetrahydroacridine-3-carboxamide] yielded an IC50 on USP8 of approximately 200 µM. Further, the GI50 in experiment [1] came out at 8.3 µM.
In turn, `O=C(NCc1cccc(CN2CCCC2)c1)c1ccc2c(Cl)c3c(nc2c1)CCCC3` [Example 18, 9-chloro-N-(3-(pyrrolidin-1-ylmethyl)benzyl)-5,6,7,8-tetrahydroacridine-3-carboxamide] displayed an IC50 against USP8 of more than 200 µM. For the same molecule, in experiment [1], the GI50 turned out to be 4.3 µM.
At USP8, `CC1CCCCN1CCCNC(=O)c1ccc2c(Cl)c3c(nc2c1)CCCC3` (stereo not drawn) [Example 20, 9-chloro-N-(3-(2-methylpiperidin-1-yl)propyl)-516,7,8-tetrahydroacridine-3-carboxamide] gave an IC50 of more than 200 µM. In experiment [1], the GI50 turned out to be 8.4 µM.
In turn, `O=C(NCC(CN1CCCC1)C(O)c1ccccc1)c1ccc2c(Cl)c3c(nc2c1)CCCC3` (stereo not drawn) [Example 25, 9-chloro-N-(3-hydroxy-3-phenyl-2-pyrrolidin-1-ylmethylpropyl)-5,6,7,8-tetrahydroacridine-3-carboxamide] had an IC50 on USP8 of more than 200 µM. In addition, the GI50 in experiment [1] was 5.6 µM.
